According to ChEMBL document CHEMBL1201862, “PubChem BioAssay data set” (2004):
Activity calls are given as the source filed them. No rule for the calls is given here.

Legend:
[1] = Counterscreen for AddAB inhibitors: absorbance-based bacterial cell-based high throughput dose response assay for inhibitors of bacterial viability. [Related pubchem assays (depositor defined):AID435030, AID449728, AID449731, AID488942, AID488955, AID488956]; format: functional
[2] = biological target: T1, Exodeoxyribonuclease V (Escherichia coli (strain K12), UniProt P04993+P07648+P08394); assay: E. coli RecBCD inhibitors, dose response, counter-screen for AddAB inhibitor project, absorbance, V66 E. coli, mutant T4 phage (AID 492957); format: functional, cell-based, Escherichia coli str. K-12 substr. MG1655
T1 sequence (P04993 whole entry): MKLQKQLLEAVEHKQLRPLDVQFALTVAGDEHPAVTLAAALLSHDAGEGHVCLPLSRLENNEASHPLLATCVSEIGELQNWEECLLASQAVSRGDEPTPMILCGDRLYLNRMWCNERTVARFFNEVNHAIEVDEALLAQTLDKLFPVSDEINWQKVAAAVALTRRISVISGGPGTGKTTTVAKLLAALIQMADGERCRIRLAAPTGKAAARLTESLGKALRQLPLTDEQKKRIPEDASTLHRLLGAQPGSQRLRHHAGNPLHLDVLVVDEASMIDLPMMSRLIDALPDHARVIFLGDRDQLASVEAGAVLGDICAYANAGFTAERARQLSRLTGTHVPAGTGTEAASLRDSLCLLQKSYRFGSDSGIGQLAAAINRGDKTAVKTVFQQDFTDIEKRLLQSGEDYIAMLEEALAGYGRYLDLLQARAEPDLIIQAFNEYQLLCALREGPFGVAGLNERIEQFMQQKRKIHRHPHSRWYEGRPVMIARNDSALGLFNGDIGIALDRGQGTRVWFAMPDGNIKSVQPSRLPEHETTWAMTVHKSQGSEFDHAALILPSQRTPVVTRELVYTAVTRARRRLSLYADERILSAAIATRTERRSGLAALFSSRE
T1 sequence (P07648 whole entry): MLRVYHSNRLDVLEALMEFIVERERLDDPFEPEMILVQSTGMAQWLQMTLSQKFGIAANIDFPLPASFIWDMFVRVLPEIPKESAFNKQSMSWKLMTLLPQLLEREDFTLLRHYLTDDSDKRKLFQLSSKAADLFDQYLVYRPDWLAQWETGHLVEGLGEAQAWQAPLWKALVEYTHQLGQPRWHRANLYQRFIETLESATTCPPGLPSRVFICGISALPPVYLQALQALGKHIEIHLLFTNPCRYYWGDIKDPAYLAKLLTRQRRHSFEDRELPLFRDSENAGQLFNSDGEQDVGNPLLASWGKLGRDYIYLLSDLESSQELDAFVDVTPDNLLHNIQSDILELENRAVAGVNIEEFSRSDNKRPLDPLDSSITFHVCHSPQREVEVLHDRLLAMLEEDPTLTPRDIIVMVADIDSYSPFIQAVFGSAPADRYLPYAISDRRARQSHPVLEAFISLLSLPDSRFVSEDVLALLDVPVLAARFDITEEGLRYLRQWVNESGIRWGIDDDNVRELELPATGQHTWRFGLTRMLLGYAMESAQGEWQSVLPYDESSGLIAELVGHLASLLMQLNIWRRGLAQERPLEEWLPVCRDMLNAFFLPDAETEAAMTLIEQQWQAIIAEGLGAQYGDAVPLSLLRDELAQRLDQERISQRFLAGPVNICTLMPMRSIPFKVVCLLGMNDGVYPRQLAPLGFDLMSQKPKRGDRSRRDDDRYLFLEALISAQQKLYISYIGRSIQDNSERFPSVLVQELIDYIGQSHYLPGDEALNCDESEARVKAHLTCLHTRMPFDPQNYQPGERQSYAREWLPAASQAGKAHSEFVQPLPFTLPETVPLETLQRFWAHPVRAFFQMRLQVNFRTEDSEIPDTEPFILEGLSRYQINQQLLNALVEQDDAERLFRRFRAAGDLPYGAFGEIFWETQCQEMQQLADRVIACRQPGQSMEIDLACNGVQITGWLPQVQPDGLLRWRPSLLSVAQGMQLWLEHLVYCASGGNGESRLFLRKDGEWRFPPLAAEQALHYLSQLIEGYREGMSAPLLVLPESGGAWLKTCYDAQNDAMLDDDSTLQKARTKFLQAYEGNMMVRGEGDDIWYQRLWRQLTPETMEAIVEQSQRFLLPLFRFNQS
T1 sequence (P08394 whole entry): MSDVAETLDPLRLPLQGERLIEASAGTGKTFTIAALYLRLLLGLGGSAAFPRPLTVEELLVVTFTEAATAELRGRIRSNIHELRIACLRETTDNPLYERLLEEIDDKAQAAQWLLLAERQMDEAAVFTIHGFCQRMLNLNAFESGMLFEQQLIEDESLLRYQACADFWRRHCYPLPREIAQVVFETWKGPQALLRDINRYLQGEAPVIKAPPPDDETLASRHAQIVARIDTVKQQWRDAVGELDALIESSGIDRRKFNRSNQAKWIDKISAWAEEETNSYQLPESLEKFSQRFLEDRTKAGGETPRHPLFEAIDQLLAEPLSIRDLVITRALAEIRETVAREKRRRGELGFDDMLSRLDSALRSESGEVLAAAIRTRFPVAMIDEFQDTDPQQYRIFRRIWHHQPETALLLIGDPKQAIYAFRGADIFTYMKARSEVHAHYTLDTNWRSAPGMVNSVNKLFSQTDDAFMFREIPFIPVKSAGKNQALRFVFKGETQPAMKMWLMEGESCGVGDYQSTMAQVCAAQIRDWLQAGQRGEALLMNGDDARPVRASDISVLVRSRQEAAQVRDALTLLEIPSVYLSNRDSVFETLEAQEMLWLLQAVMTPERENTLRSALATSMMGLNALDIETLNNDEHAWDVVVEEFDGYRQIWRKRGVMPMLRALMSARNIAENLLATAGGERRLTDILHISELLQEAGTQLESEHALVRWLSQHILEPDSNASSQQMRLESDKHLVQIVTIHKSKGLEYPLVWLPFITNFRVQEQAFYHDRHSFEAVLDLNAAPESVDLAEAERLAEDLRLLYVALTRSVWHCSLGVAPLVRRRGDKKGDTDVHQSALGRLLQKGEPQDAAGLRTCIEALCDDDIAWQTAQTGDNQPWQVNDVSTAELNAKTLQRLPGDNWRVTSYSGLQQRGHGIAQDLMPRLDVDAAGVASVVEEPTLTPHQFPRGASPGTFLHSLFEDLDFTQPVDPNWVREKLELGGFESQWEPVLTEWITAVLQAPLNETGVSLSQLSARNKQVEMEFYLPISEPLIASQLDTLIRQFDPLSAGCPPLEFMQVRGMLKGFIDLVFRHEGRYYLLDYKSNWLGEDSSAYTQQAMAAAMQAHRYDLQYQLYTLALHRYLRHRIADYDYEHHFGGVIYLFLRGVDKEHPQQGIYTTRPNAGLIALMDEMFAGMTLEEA

## CCCCC(=O)NC(c1ccccc1)c1ccc2cccnc2c1O (centres undefined)
[1]
  IC50: > 118 µM (inactive)
[2]
  IC50: > 118 µM (inactive)

## O=C(/C=C/c1cccs1)NC(=S)NNC(=O)c1ccccc1O
[1]
  IC50: 109 µM (inactive)
[2]
  IC50: 114 µM (inactive)
